{"source": "paper PMC11861159", "about": "“Design, synthesis, and in vitro, in vivo, and in silico evaluation of novel substituted 1,3,4-thiadiazole derivatives as anticonvulsant agents” (Frontiers in Chemistry, 2025);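 as to % protection MES 0.5 h: percent reduction of the test group versus the control group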;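 as to % protection MES 4 h: percent reduction of the test group versus the control group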;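 as to % protection Sc-PTZ 0.5 h: percent reduction of the test group versus the control group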;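 as to % protection Sc-PTZ 4 h: percent reduction of the test group versus the control group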", "key": {"[1]": {"tested_on": "total antioxidant capacity (TAC)", "assay": "Total antioxidant capacity (FRAP) in brain tissue of PTZ-treated mice", "assay_type": "in vivo", "conditions": "compared to pentylenetetrazole-treated group, n = 6", "procedure": "(§1) Brain tissue homogenates were prepared by isolating the brain (tissue) from the mice. Animals were euthanized under anesthesia by ketamine (80 mg/kg) and xylazine (5 mg/kg) after 8 h of inducing test and standard compounds. Mice’s brains (tissue) were quickly removed and weighed, and the whole brain samples were washed twice with ice-cold saline solution before being deposited in glass vials, labeled, and stored in a deep freeze (−30°C) until further use. Brain tissue samples were homogenized with a glass handheld homogenizer (PTFE coated). Tissue homogenates (10% w/v) were prepared in cold 0.1 M phosphate buffer (pH adjusted to 7.4) using a homogenizer. To test biological parameters, the supernatant from homogenates was centrifuged at 12,000 rpm for 20 min at 4°C.\nTotal antioxidant capacity (TAC) was measured by mixing 200 μL of tissue samples with 3 mL of ferric-reducing antioxidant power (FRAP) reagent in a vortex. After incubating samples and blank tubes in a water bath for 30 min at 37°C, the absorbance of the samples was measured at 593 nm. For the standard curve, a stock solution of FeSO4.7H2O in distilled water was produced. Stock solution concentrations were 200, 400, 800, 1200, and 1600 μM. The curve results were given as mM of ferrous sulfate equivalent Fe2+/L ([Sun et al., 1988])."}, "PTZ-induced seizures": {"tested_on": "PTZ-induced seizures", "assay": "Subcutaneous pentylenetetrazole (sc-PTZ) test", "assay_type": "in vivo, male Swiss albino mice"}, "[2]": {"molecular_target": "T1, human carbonic anhydrase II (Homo sapiens, UniProt P00918)", "T1 construct": "purchased Sino Biological Inc, Beijing, China", "assay": "Human carbonic anhydrase II colorimetric (p-nitrophenyl acetate) inhibition assay", "assay_type": "biochemical", "conditions": "mean ± SEM, three independent experiments in triplicate; read-out: CA II (IC50)", "procedure": "(§2) In brief, the reaction mixture contained 60 μL of 50 mM Tris-sulfate buffer (pH 7.6, containing 0.1 mM ZnCl2),10 μL (0.5 mM) of the test compound in 1% DMSO, and 10 μL of human carbonic anhydrase II and IX (Sino Biological Inc, Beijing, China). All the ingredients were mixed well and pre-incubated at 25°C for 10 min. Substrate p-nitrophenyl acetate was prepared as a 6 mM stock solution using 5% of acetonitrile in buffer and was used fresh. […] The total assay volume was adjusted to 100 μL and further incubated at 37°C for 30 min. Furthermore, all the ingredients were mixed properly, and absorbance was measured. […] The results reported are the mean of triplicate experiments (±SEM) and expressed IC50 values, which were calculated."}, "[3]": {"tested_on": "superoxide dismutase (SOD)", "assay": "Superoxide dismutase activity in brain homogenate of PTZ-treated mice", "assay_type": "in vivo", "conditions": "compared to PTZ-administered group, n = 6", "procedure": "as §1\nSun et al.'s approach ([…]) was used to determine Cu, Zn-SOD activity. An oxidase complex ([…]) generates superoxide radicals, which react with NBT to yield the formazan molecule in this process. In brief, a reactive was created by combining 0.1 mM xanthine, 0.1 mM EDTA, 50 mg bovine serum albumin, 25 mM NBT, and 40 mM Na2CO3 (pH 10.2). […] The sample’s absorbance was measured at 560 nm. […] The quantity of the enzyme that blocked NBT conversion to formazan by 50% was determined as one unit of SOD activity. SOD activity was measured in units per milligram of protein."}, "[4]": {"molecular_target": "T2, human carbonic anhydrase IX (Homo sapiens, UniProt Q16790)", "T2 construct": "purchased Sino Biological Inc, Beijing, China", "assay": "Human carbonic anhydrase IX colorimetric (p-nitrophenyl acetate) inhibition assay", "assay_type": "biochemical", "conditions": "mean ± SEM, three independent experiments in triplicate; read-out: CA IX (IC50)", "procedure": "as §2"}, "MES-induced seizures": {"tested_on": "MES-induced seizures", "assay": "Maximal electroshock-induced seizure (MES) test", "assay_type": "in vivo, male Swiss albino mice"}, "glutathione (GSH)": {"tested_on": "glutathione (GSH)", "assay": "Reduced glutathione level in brain of PTZ-treated mice", "assay_type": "in vivo", "conditions": "compared to pentylenetetrazole-treated group, n = 6", "procedure": "as §1\nThe quantity of glutathione (GSH) in the brain was determined using the Sedlak and Lindsay method ([Pant et al., 2023]). In brief, brain tissue was deproteinized with an equal amount of 10% TCA and left at 4°C for 2 h. The contents were centrifuged for 15 min at 1200 rpm. The supernatant was mixed with 2 mL of 0.4 M Tris buffer (pH 8.9) containing 0.02 M EDTA (pH 8.9), and then 0.01 M DTNB was added. Finally, the mixture was diluted with 0.5 mL of distilled water to make a total volume of 3 mL, and absorbance was measured using a spectrophotometer at 412 nm, with results expressed as mg GSH/gm tissue."}, "nitric oxide (NO)": {"tested_on": "nitric oxide (NO)", "assay": "Nitrite/NO level (Greiss reagent) in brain homogenate of PTZ-treated mice", "assay_type": "in vivo", "conditions": "brain supernatant, compared to pentylenetetrazole-treated group, n = 6", "procedure": "as §1\nGreiss reagent, a solution of 0.5% sulfonamide, 2.5% phosphoric acid, and 0.05% naphthyl ethylenediamine, was used to measure nitric oxide (NO) in TSH. Greiss reagent and TSH absorbance were measured at 540 nm, and the sodium nitrite standard curve was used to calculate the quantity of nitrite ([Wills, 1996]; [Green et al., 1982])."}, "mice": {"tested_on": "mice", "assay": "Rotarod neurotoxicity screening", "assay_type": "in vivo, male Swiss albino mice", "procedure": "The rotarod test, as described in the literature, was used to evaluate neurotoxicity (NT) in mice. In brief, six mice (one group) were trained to balance on a spinning rod (3 cm diameter and 6 rpm speed) to familiarize with the rotarod apparatus (Orchid Scientific, India). Each mouse underwent three trials to remain on the rotating rod for over 1 minute, with the experiment’s cutoff time (180 s) remaining constant. Different pre-oral (p.o.) doses of test and standard substances were administered to the trained animals."}, "induced seizures": {"tested_on": "induced seizures", "assay": "Anticonvulsant screening (MES and sc-PTZ), outcome recovery/death"}, "GABA level": {"tested_on": "GABA level", "assay": "Estimation of brain GABA level", "assay_type": "in vivo, mice", "conditions": "30 mg/kg p.o., 2 h after administration, compared to pentylenetetrazole-treated group", "procedure": "as §1, with “Animals were euthanized under anesthesia by ketamine (80 mg/kg) and xylazine (5 mg/kg) after 8 h of inducing test and standard compounds.” left out\nThe supernatant was put on silica gel 60 F254 aluminum sheets (10 cm × 10 cm) as the stationary phase, with the mobile phase consisting of water-saturated phenol. Prior to chromatography, TLC plates were prewashed with methanol and activated in an oven at 50°C for 5 min. The 0.1 mL supernatant solutions were applied in the form of bands on TLC plates. At room temperature, ascending development was carried out in a glass chamber saturated with the mobile phase for 30 min until a length of 80 mm was reached. The TLC plates that had been created were air-dried and treated with ninhydrin. […] The method’s specificity was determined by obtaining standard GABA samples and comparing their Rf values. […]"}, "[5]": {"conditions": "oral, lowest dose active in half or more of the mice, 0.5 h, n = 6"}, "[6]": {"conditions": "oral, lowest dose active in half or more of the mice, 4 h, n = 6"}}, "data": [{"compound": "CCN(CC)CCOc1cccc(C(=O)Nc2nncs2)c1", "note": "[Compound 6d, 3-(2-(diethylamino)ethoxy)-N-(1,3,4-thiadiazol-2-yl)benzamide]", "values": [{"measurement": "TAC level (FRAP)", "setting": "[1]", "result": "significant increase in TAC levels"}, {"measurement": "% protection Sc-PTZ 0.5 h", "setting": "PTZ-induced seizures; 30 mg/kg oral, 0.5 h", "result": 38.59, "unit": "%"}, {"measurement": "% protection Sc-PTZ 4 h", "setting": "PTZ-induced seizures; 30 mg/kg oral, 4 h", "result": 46.34, "unit": "%"}, {"measurement": "% protection Sc-PTZ 0.5 h", "setting": "PTZ-induced seizures; 100 mg/kg oral, 0.5 h", "result": 58.30, "unit": "%"}, {"measurement": "% protection Sc-PTZ 4 h", "setting": "PTZ-induced seizures; 100 mg/kg oral, 4 h", "result": 66.34, "unit": "%"}, {"measurement": "% protection Sc-PTZ 0.5 h", "setting": "PTZ-induced seizures; 300 mg/kg oral, 0.5 h", "result": 70.4, "unit": "%"}, {"measurement": "% protection Sc-PTZ 4 h", "setting": "PTZ-induced seizures; 300 mg/kg oral, 4 h", "result": 82.88, "unit": "%"}, {"measurement": "Minimum active dose (mg/kg) Sc-PTZ 0.5 h", "setting": "PTZ-induced seizures; [5]", "result": 30, "unit": "mg/kg"}, {"measurement": "Minimum active dose (mg/kg) Sc-PTZ 4 h", "setting": "PTZ-induced seizures; [6]", "result": 30, "unit": "mg/kg"}, {"measurement": "IC50", "setting": "[2]", "result": "80 ± 50", "unit": "nM"}, {"measurement": "SOD activity", "setting": "[3]", "result": "significant increase in SOD activity"}, {"measurement": "IC50", "setting": "[4]", "result": "100 ± 20", "unit": "nM"}, {"measurement": "% protection MES 0.5 h", "setting": "MES-induced seizures; 30 mg/kg oral, 0.5 h", "result": 38.96, "unit": "%"}, {"measurement": "% protection MES 4 h", "setting": "MES-induced seizures; 30 mg/kg oral, 4 h", "result": 41.53, "unit": "%"}, {"measurement": "% protection MES 0.5 h", "setting": "MES-induced seizures; 100 mg/kg oral, 0.5 h", "result": 55.38, "unit": "%"}, {"measurement": "% protection MES 4 h", "setting": "MES-induced seizures; 100 mg/kg oral, 4 h", "result": 60, "unit": "%"}, {"measurement": "% protection MES 0.5 h", "setting": "MES-induced seizures; 300 mg/kg oral, 0.5 h", "result": 72.30, "unit": "%"}, {"measurement": "% protection MES 4 h", "setting": "MES-induced seizures; 300 mg/kg oral, 4 h", "result": 89.46, "unit": "%"}, {"measurement": "Minimum active dose (mg/kg) MES 0.5 h", "setting": "MES-induced seizures; [5]", "result": 30, "unit": "mg/kg"}, {"measurement": "Minimum active dose (mg/kg) MES 4 h", "setting": "MES-induced seizures; [6]", "result": 30, "unit": "mg/kg"}, {"measurement": "GSH level", "setting": "glutathione (GSH)", "result": "significant increase in GSH levels"}, {"measurement": "NO (nitrite) level", "setting": "nitric oxide (NO)", "result": "significantly reduced NO levels"}, {"measurement": "Neurotoxicity (rotarod test), result in words", "setting": "mice; at the highest dose (300 mg/kg)", "result": "without any sign of neurotoxicity"}, {"measurement": "Neurotoxicity dose (mg/kg) 0.5 h", "setting": "mice; rotarod, oral doses 30, 100, 300 mg/kg, 0.5 h", "result": "- (The indication - (dash) denotes a lack of action at the maximum dose supplied (300 mg/kg))"}, {"measurement": "Neurotoxicity dose (mg/kg) 4 h", "setting": "mice; rotarod, oral doses 30, 100, 300 mg/kg, 4 h", "result": "- (The indication - (dash) denotes a lack of action at the maximum dose supplied (300 mg/kg))"}, {"measurement": "Recovery/death", "setting": "induced seizures; 30 mg/kg oral", "result": "Recovery"}, {"measurement": "Recovery/death", "setting": "induced seizures; 100 mg/kg oral", "result": "Recovery"}, {"measurement": "Recovery/death", "setting": "induced seizures; 300 mg/kg oral", "result": "Recovery"}, {"measurement": "GABA level in the brain", "setting": "GABA level", "result": "significant increase in GABA levels"}]}]}
